From patent publication US10138225B2 (Achillion Pharmaceuticals, Inc., priority 2015, dated 2018) come the findings set out here.

The target of the assay is T1, Human Factor D (Homo sapiens, UniProt P00746).
T1 construct: purified from human serum; purchased Complement Technology, Inc; host or cells: human serum (natural protein, not recombinant)
T1 sequence (P00746 26-253): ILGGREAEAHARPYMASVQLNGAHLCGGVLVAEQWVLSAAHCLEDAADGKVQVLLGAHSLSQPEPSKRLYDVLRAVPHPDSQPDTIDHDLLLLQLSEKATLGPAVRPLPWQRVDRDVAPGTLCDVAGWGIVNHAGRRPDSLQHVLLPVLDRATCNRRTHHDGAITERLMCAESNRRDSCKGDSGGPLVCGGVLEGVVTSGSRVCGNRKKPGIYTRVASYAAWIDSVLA
Nature of the assay: Human Factor D Assay. The class given is biochemical. As to conditions: Table 1; Factor D 80 nM, substrate Z-L-Lys-SBzl; read-out: IC50. The method, then: Human Factor D (purified from human serum, Complement Technology, Inc.) at 80 nM final concentration is incubated with test compound at various concentrations for 5 minutes at room temperature in 50 mM Tris, 1M NaCl, pH 7.5. A synthetic substrate Z-L-Lys-SBzl and DTNB (Ellman's reagent) are added to final concentrations of 100 μM each. Absorbance at 405 nm (A405) is recorded at 30 second intervals for 30 minutes using a microplate spectrophotometer. IC50 values are calculated by nonlinear regression of complement Factor D reaction rates as a function of test compound concentration.
For the molecule `NC(=O)c1nn(CC(=O)N2C[C@H](F)C[C@H]2C(=O)Nc2cccc(OC(F)(F)F)c2F)c2ccc(NC(=O)Nc3ccon3)cc12` [Compound 25, 1-(2-((2S,4R)-4-fluoro-2-(2-fluoro-3-(trifluoromethoxy)phenylcarbamoyl)pyrrolidin-1-yl)-2-oxoethyl)-5-(3-isoxazol-3-ylureido)-1H-indazole-3-carboxamide], the IC50 is under 1 µM.

As to `NC(=O)c1nn(CC(=O)N2C[C@H](F)C[C@H]2C(=O)Nc2cccc(OC(F)(F)F)c2F)c2ccc(NC(=O)N3CCCC(F)(F)C3)cc12` [Compound 26], the half-inhibitory concentration (IC50) is under 1 µM.

As to `NC(=O)c1nn(CC(=O)N2[C@@H]3C[C@@H]3C[C@H]2C(=O)Nc2cccc(OC(F)(F)F)c2F)c2ccc(NC(=O)N3CCCC(F)(F)C3)cc12` [Compound 27, 5-(3,3-difluoropiperidine-1-carboxamido)-1-(2-((1R,3S,5R)-3-(2-fluoro-3-(trifluoromethoxy)phenylcarbamoyl)-2-azabicylco[3.1.0]hexan-2-yl)-2-oxoethyl)-1H-indazole-3-carboxamide], the half-maximal inhibitory concentration (IC50) was under 1 µM.

Consider `NC(=O)c1nn(CC(=O)N2[C@@H]3C[C@@H]3C[C@H]2C(=O)Nc2cccc(-c3ccccc3Cl)c2F)c2ccc(NC(=O)N3CCCC(F)(F)C3)cc12` [Compound 28, 1-(2-((1R,3S,5R)-3-(2′-chloro-2-fluorobiphenyl-3-ylcarbamoyl)-2-azabicyclo[3.1.0]hexan-2-yl)-2-oxoethyl)-5-(3,3-difluoropiperidine-1-carboxamido)-1H-indazole-3-carboxamide], for which the IC50 is under 1 µM.

With `NC(=O)c1nn(CC(=O)N2C[C@H](F)C[C@H]2C(=O)Nc2cccc(-c3ncccc3Cl)c2F)c2ccc(NC(=O)N3CCCC(F)(F)C3)cc12` [Compound 29, 1-(2-((2S,4R)-2-(3-(3-chloropyridin-2-yl)-2-fluorophenylcarbamoyl)-4-fluoropyrrolidin-1-yl)-2-oxoethyl)-5-(3,3-difluoropiperidine-1-carboxamido)-1H-indazole-3-carboxamide], the IC50 was under 1 µM.

Turning to `NC(=O)c1nn(CC(=O)N2C[C@H](F)C[C@H]2C(=O)Nc2cccc(-c3ccccc3Cl)c2F)c2ccc(NC(=O)N3CCC(F)(F)C3)cc12` [Compound 30, 1-(2-((2S,4R)-2-(2′-chloro-2-fluorobiphenyl-3-ylcarbamoyl)-4-fluoropyrrolidin-1-yl)-2-oxoethyl)-5-(3,3-difluoropyrrolidine-1-carboxamido)-1H-indazole-3-carboxamide], the half-maximal inhibitory concentration (IC50) was under 1 µM.

As to `NC(=O)c1nn(CC(=O)N2C[C@H](F)C[C@H]2C(=O)Nc2cccc(-c3ccccc3Cl)c2F)c2ccc(NC(=O)N3CCC(F)(F)CC3)cc12` [Compound 31, 1-(2-((2S,4R)-2-(2′-chloro-2-fluorobiphenyl-3-ylcarbamoyl)-4-fluoropyrrolidin-1-yl)-2-oxoethyl)-5-(4,4-difluoropiperidine-1-carboxamido)-1H-indazole-3-carboxamide], the half-maximal inhibitory concentration (IC50) is under 1 µM.

Regarding `NC(=O)c1nn(CC(=O)N2C[C@H](F)C[C@H]2C(=O)Nc2cccc(-c3ccccc3Cl)c2F)c2ccc(NC(=O)NCc3ncccn3)cc12` [Compound 32, 1-(2-((2S,4R)-2-(2′-chloro-2-fluorobiphenyl-3-ylcarbamoyl)-4-fluoropyrrolidin-1-yl)-2-oxoethyl)-5-(3-(pyrimidin-2-ylmethyl)ureido)-1H-indazole-3-carboxamide], the IC50 was under 1 µM.

As for `NC(=O)c1nn(CC(=O)N2C[C@H](F)C[C@H]2C(=O)Nc2cccc(Br)n2)c2ccc(NC(=O)N3CCCC(F)(F)C3)cc12` [Compound 33, 1-(2-((2S,4R)-2-(6-bromopyridin-2-ylcarbamoyl)-4-fluoropyrrolidin-1-yl)-2-oxoethyl)-5-(3,3-difluoropiperidine-1-carboxamido)-1H-indazole-3-carboxamide], the IC50 was under 1 µM.

Turning to `NC(=O)c1nn(CC(=O)N2[C@@H]3C[C@@H]3C[C@H]2C(=O)Nc2cccc(Br)n2)c2ccc(NC(=O)N3CCCC(F)(F)C3)cc12` [Compound 34, 1-(2-((1R,3S,5R)-3-(6-bromopyridin-2-ylcarbamoyl)-2-azabicylco[3.1.0]hexan-2-yl)-2-oxoethyl)-5-(3,3-difluoropiperidine-1-carboxamido)-1H-indazole-3-carboxamide], the half-inhibitory concentration (IC50) is under 1 µM.

As to `CC(=O)c1cn(CC(=O)N2C[C@H](F)C[C@H]2C(=O)Nc2cccc(-c3ccccc3Cl)c2F)c2ccc(NC(=O)C3CCC(F)(F)C3)cc12` (stereo partly drawn) [Compound 35, (2S,4R)-1-(2-(3-acetyl-5-(3,3-difluorocyclopentane-carboxamido)-1H-indol-1-yl)acetyl)-N-(2′-chloro-2-fluorobiphenyl-3-yl)-4-fluoropyrrolidine-2-carboxamide], the concentration for half-maximal inhibition (IC50) was under 1 µM.

Consider `CC(=O)c1cn(CC(=O)N2C[C@H](F)C[C@H]2C(=O)Nc2cccc(-c3ccccc3Cl)c2F)c2ccc(NC(=O)CC(F)(F)F)cc12` [Compound 36, (2S,4R)-1-(2-(3-acetyl-5-(3,3,3-trifluoropropanamido)-1H-indol-1-yl)acetyl)-N-(2′-chloro-2-fluorobiphenyl-3-yl)-4-fluoropyrrolidine-2-carboxamide], for which the IC50 is under 1 µM.

Regarding `CC(=O)c1cn(CC(=O)N2C[C@H](F)C[C@H]2C(=O)NCc2cccc(Cl)c2F)c2cc(NC(=O)OC(C)(C)C)ccc12` [Compound 37, tert-butyl 3-acetyl-1-(2-((2S,4R)-2-(3-chloro-2-fluorobenzylcarbamoyl)-4-fluoropyrrolidin-1-yl)-2-oxoethyl)-1H-indol-6-ylcarbamate], the concentration for half-maximal inhibition (IC50) is under 1 µM.

For the molecule `CC(=O)c1cn(CC(=O)N2C[C@H](F)C[C@H]2C(=O)NCc2cccc(Cl)c2F)c2ccc(C(=O)N3CC=C(B(O)O)CC3)cc12` [Compound 38, 1-(3-acetyl-1-(2-((2S,4R)-2-(3-chloro-2-fluorobenzylcarbamoyl)-4-fluoropyrrolidin-1-yl)-2-oxoethyl)-1H-indole-5-carbonyl)-1,2,3,6-tetrahydropyridin-4-ylboronic acid], the IC50 was under 1 µM.

Take `CC(=O)c1cn(CC(=O)N2C[C@H](F)C[C@H]2C(=O)NCc2cccc(Cl)c2F)c2ccc(C(=O)N3CC4CCC3C4)cc12` (stereo partly drawn) [Compound 39, (2S,4R)-1-(2-(3-acetyl-5-(2-azabicyclo[2.2.1]heptane-2-carbonyl)-1H-indol-1-yl)acetyl)-N-(3-chloro-2-fluorobenzyl)-4-fluoropyrrolidine-2-carboxamide]: the IC50 was under 1 µM.

On to `CC(=O)c1cn(CC(=O)N2C[C@H](F)C[C@H]2C(=O)NCc2cccc(Cl)c2F)c2ccc(C(=O)N3CCCC(F)(F)C3)cc12` [Compound 40, (2S,4R)-1-(2-(3-acetyl-5-(3,3-difluoropiperidine-1-carbonyl)-1H-indol-1-yl)acetyl)-N-(3-chloro-2-fluorobenzyl)-4-fluoropyrrolidine-2-carboxamide], for which the IC50 is under 1 µM.

As for `CC(=O)c1cn(CC(=O)N2C[C@H](F)C[C@H]2C(=O)NCc2cccc(Cl)c2F)c2ccc(C(=O)NC3CC3)cc12` [Compound 41, 3-acetyl-1-(2-((2S,4R)-2-(3-chloro-2-fluorobenzylcarbamoyl)-4-fluoropyrrolidin-1-yl)-2-oxoethyl)-N-cyclopropyl-1H-indole-5-carboxamide], the half-maximal inhibitory concentration (IC50) is under 1 µM.

One may read the IC50 as the concentration at which inhibition is half-maximal.
